Assay [1] relates to Felis catus. Nature of the assay: Effect on increase in heart rate in anesthetized cats at intravenous dose of 100 ug/kg. The class given is functional.
Assay [2] has as its system Felis catus. Nature of the assay: Effect on increase in heart rate in anesthetized cats at intravenous dose of 300 ug/kg. It counts as functional.
Assay [3] deals with Felis catus. Nature of the assay: Effect on rise in arterial pressure in anesthetized cats at intravenous dose of 100 ug/kg. It counts as functional, Artery.
Assay [4] relates to Felis catus. Nature of the assay: Effect on rise in arterial pressure in anesthetized cats at intravenous dose of 1000 ug/kg. The class given is functional, Artery.
The subject of assay [5] is Felis catus. As to the kind of experiment: Effect on rise in arterial pressure in anesthetized cats at intravenous dose of 300 ug/kg. It counts as functional, Artery.
For assay [6], the system named is Felis catus. As to the kind of experiment: Effect on increase in heart rate in anesthetized cats at intravenous dose of 30 ug/kg. It counts as functional.
For assay [7], the system named is Felis catus. As to the kind of experiment: Effect on rise in arterial pressure in anesthetized cats at intravenous dose of 30 ug/kg. It counts as functional, Artery.

The structures appear in SMILES notation.

Regarding `CCCN(CCC)C1Cc2cc(O)cc(O)c2C1` (centres undefined), the Heart rate is given as 0 beats min-1 in assay [1] and 21.7 beats min-1 in assay [2]. Further, the Arterial pressure is given as 10 mmHg in assay [3] and 22.8 mmHg in assay [4].
As to `NC1Cc2cc(O)cc(O)c2C1` (centres undefined), the Heart rate in assay [1] amounted to 0 beats min-1; in assay [2], 7.3 beats min-1. Besides, the figures for the Arterial pressure in assay [3] and in assay [4] were 13.3 mmHg and 70.3 mmHg, respectively.
`NC1CCCc2c(O)cc(O)cc2C1` (centres undefined): the results for the Heart rate in assay [1], in assay [2] and in assay [6] were 11.7 beats min-1, 42 beats min-1 and 4.3 beats min-1, respectively. In addition, the results for the Arterial pressure in assay [5], in assay [3] and in assay [7] were 78.7 mmHg, 40 mmHg and 25.3 mmHg, respectively.
